From PMC12655172, “Borylated 5-Membered Ring Iminosugars: Synthesis and Biological Evaluation for Glycosidase Inhibition and Anticancer Properties for Application in Boron Neutron Capture Therapy (BNCT)—Part 2” (Pharmaceuticals, 2025)

How the values were obtained:
[1] = test system: T1, trehalase (porcine kidney); test: Glycosidase inhibition (Table 2 panel); type: biochemical
T1 construct: purchased Sigma-Aldrich; host or cells: porcine kidney
Description: (§1) The enzymes α-D-glucosidase (yeast), β-D-glucosidases (almond, bovine liver), α-D-galactosidase (coffee beans), β-D-galactosidase (bovine liver), α-D-mannosidase (Jack bean), β-D-mannosidase (snail), α-L-rhamnosidase (P. decumbens), α-L-fucosidase (bovine kidney), trehalase (porcine kidney), β-D-glucuronidases (E. coli, bovine liver), amyloglucosidase (A. niger), para-nitrophenyl glycosides, and various disaccharides were purchased from Sigma-Aldrich Co (St. Louis, MO, USA).
(§2) Brush border membranes were prepared from the rat small intestine according to the method of Kessler et al., and were assayed at pH 6.8 for rat intestinal maltase using maltose. For rat intestinal maltase, porcine kidney trehalase, and A. niger amyloglucosidase activities, the reaction mixture contained maltose ([…]) and the appropriate amount of enzyme, and the incubations were performed for 10–30 min at 37 °C. The reaction was stopped by heating at 100 °C for 3 min. After centrifugation (600 g; 10 min), the resulting reaction mixture was added to the Glucose CII-test Wako (Wako Pure Chemical Ind., Osaka, Japan). The absorbance at 505 nm was measured to determine the amount of the released D-glucose. Other glycosidase activities were determined using an appropriate para-nitrophenyl glycoside as substrate at the optimum pH of each enzyme. The reaction mixture contained the substrate ([…]) and the appropriate amount of enzyme. The reaction was stopped by the addition of Na2CO3 ([…]). The released para-nitrophenol was measured spectrometrically at 400 nm. All reactions were run in […].

[2] = test system: T2, α-D-galactosidase (coffee beans); test: Glycosidase inhibition (Table 2 panel); type: biochemical
T2 construct: purchased Sigma-Aldrich; host or cells: coffee beans
Description: as §1, §2

[3] = test system: α-D-glucosidase (rat intestinal maltase); test: Glycosidase inhibition (Table 2 panel); type: biochemical
Description: as §1, §2

α-D-glucosidase (rice) = α-D-glucosidase (rice) (Oryza sativa subsp. japonica, UniProt Q653V7); test: Glycosidase inhibition (Table 2 panel); type: biochemical
Description: as §1, §2

[4] = test system: T3, α-D-mannosidase (Jack bean); test: Glycosidase inhibition (Table 2 panel); type: biochemical
T3 construct: purchased Sigma-Aldrich; host or cells: Jack bean
Description: as §1, §2

[5] = test system: α-L-rhamnosidase (P. decumbens); test: Glycosidase inhibition (Table 2 panel); type: biochemical
Description: as §1, §2

β-D-glucosidase (almond) = test: Glycosidase inhibition (Table 2 panel); type: biochemical
Description: as §1, §2

[6] = target: T4, β-D-glucosidase (bovine liver) (Bos taurus, UniProt F1MNT6); test: Glycosidase inhibition (Table 2 panel); type: biochemical
T4 sequence (F1MNT6 1-469): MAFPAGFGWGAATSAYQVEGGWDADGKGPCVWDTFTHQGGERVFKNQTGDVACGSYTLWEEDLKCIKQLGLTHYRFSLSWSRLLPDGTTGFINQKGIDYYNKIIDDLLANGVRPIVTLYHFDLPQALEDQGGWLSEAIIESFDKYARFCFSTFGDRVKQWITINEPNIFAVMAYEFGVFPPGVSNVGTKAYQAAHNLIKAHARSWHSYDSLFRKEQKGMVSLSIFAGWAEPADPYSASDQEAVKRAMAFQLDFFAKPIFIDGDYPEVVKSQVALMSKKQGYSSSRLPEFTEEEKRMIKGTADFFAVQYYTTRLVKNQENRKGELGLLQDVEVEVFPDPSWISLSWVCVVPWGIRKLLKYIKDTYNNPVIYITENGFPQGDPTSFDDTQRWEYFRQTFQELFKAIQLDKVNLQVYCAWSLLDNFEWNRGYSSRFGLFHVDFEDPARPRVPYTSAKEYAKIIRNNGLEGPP
Description: as §1, §2

[7] = test system: β-D-glucuronidase (bovine liver); test: Glycosidase inhibition (Table 2 panel); type: biochemical
Description: as §1, §2

β-D-mannosidase (snail) = test: Glycosidase inhibition (Table 2 panel); type: biochemical
Description: as §1, §2

[8] = Sample appearance on sample preparation in water; type: physicochemical; settings: 1 mL of water was added to 1 mg solid
[9] = test system: A2780 (ovarian carcinoma); test: Cancer screening, MTT growth inhibition; type: cell-based; settings: Homo sapiens; for inhibition at 25 µM: A2780, 25 µM of drug, 72 h, read-out: DOSE SCREEN percentage (%) cell growth inhibition A2780 Ovarian; for GI50: A2780, 72 h, read-out: DOSE RESPONSE GI50 A2780 Ovarian
Procedure: (§3) For Table 4, all test agents were prepared as stock solutions ([…]) in dimethyl sulfoxide (DMSO) and stored at −20 °C. Cell lines used in the study included HT29 (colorectal carcinoma), A2780 (ovarian carcinoma), H460 (lung carcinoma), A431 (skin carcinoma), MiaPaCa-2 (pancreatic carcinoma), and SMA560 (spontaneous murine astrocytoma), together with MCF10A (non-tumour derived normal breast cell line). Cell line sources: the HT29, H460, and MiaPaCa-2, together with MCF10A were purchased from ATCC. The A2780 and A431 were purchased from the European Collection of Cell Culture (ECACC). All cell lines were incubated in a humidified atmosphere 5% CO2 at 37 °C. The cancer cell lines were maintained in Dulbecco’s modified Eagle’s medium (DMEM; Sigma, Truganina, Australia) supplemented with foetal bovine serum (10%), sodium pyruvate ([…]), penicillin (100 IUmL^−1), streptomycin (100 µg mL^−1), and L-glutamine ([…]).
(§4) Growth inhibition was determined by plating cells in duplicate in medium (100 µL) at a density of 2500–4000 cells per well in 96-well plates. On day 0 (24 h after plating), when the cells are in logarithmic growth, medium (100 µL) with or without the test agent was added to each well. […] Each data point is the mean ± the standard error of the mean (SEM) calculated from three replicates which were performed on separate occasions and separate cell line passages.

A431 (skin carcinoma) = test: Cancer screening, MTT growth inhibition; type: cell-based; settings: Homo sapiens; for inhibition at 25 µM: A-431, 25 µM of drug, 72 h, read-out: DOSE SCREEN percentage (%) cell growth inhibition A431 Skin; for GI50: A-431, 72 h, read-out: DOSE RESPONSE GI50 A431 Skin
Procedure: as §3, §4

H460 (lung carcinoma) = test: Cancer screening, MTT growth inhibition; type: cell-based; settings: Homo sapiens; for inhibition at 25 µM: NCI-H460, 25 µM of drug, 72 h, read-out: DOSE SCREEN percentage (%) cell growth inhibition H460 Lung; for GI50: NCI-H460, 72 h, read-out: DOSE RESPONSE GI50 H460 Lung
Procedure: as §3, §4

[10] = test system: HT29 (colorectal carcinoma); test: Cancer screening, MTT growth inhibition; type: cell-based; settings: Homo sapiens; for inhibition at 25 µM: HT-29, 25 µM of drug, 72 h, read-out: DOSE SCREEN percentage (%) cell growth inhibition HT29 Colon; for GI50: HT-29, 72 h, read-out: DOSE RESPONSE GI50 HT29 Colon
Procedure: as §3, §4

Chain of α-D-glucosidase (rice) (Q653V7 34-885): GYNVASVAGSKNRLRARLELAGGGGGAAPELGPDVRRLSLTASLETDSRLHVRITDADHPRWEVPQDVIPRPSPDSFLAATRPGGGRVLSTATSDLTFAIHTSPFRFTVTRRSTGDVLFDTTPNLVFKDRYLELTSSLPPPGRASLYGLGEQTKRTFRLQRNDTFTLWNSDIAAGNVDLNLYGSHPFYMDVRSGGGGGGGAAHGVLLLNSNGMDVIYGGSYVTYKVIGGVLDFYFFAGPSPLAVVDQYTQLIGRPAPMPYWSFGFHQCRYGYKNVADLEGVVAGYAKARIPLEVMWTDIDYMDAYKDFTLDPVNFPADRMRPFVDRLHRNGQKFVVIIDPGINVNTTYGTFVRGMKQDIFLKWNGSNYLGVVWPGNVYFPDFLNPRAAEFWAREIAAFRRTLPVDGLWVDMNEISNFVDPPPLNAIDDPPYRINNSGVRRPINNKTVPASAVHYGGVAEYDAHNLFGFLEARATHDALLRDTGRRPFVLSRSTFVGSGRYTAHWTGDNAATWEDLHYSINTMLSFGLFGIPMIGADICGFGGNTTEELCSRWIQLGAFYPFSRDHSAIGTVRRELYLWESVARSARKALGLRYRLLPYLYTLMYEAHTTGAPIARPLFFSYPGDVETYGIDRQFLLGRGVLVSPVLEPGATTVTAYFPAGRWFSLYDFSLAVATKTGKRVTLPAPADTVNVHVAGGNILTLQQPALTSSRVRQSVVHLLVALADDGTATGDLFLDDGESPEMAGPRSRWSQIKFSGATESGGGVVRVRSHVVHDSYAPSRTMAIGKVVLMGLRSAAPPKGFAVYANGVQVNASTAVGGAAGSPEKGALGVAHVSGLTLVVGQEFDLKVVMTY

Structure (SMILES)	inhibition % Trehalase Porcine Kidney ([1]; at 100 μM)	inhibition % Trehalase Porcine Kidney ([1]; at 1000 μM)	inhibition % α-D-Galactosidase Coffee Beans ([2]; at 100 μM)	inhibition % α-D-Glucosidase Rat Intestinal Maltase ([3]; at 100 μM)	inhibition at 100 µM (α-D-glucosidase (rice))	inhibition % α-D-Mannosidase Jack Bean ([4]; at 100 μM)	inhibition % α-L-Rhamnosidase P. decumbens ([5]; at 100 μM)	inhibition % β-D-Glucosidase Almond (β-D-glucosidase (almond); at 100 μM)	inhibition at 100 µM [6]	inhibition % β-D-Glucuronidase Bovine Liver ([7]; at 100 μM)	inhibition % β-D-Mannosidase Snail (β-D-mannosidase (snail); at 100 μM)	Sample Appearance [8]	inhibition at 25 µM [9]	GI50 [9]	inhibition at 25 µM (A431 (skin carcinoma))	GI50 (A431 (skin carcinoma))	inhibition at 25 µM (H460 (lung carcinoma))	GI50 (H460 (lung carcinoma))	inhibition at 25 µM [10]	GI50 [10]	other results
OC[C@H](O)[C@@H]1[C@H](O)[C@H](O)CN1Cc1ccccc1B(O)O [ortho 4, N-(2-Methylphenylboronic acid)-1,4-dideoxy-1,4-imino-L-gulitol]	^cNI ^d(0%)	^aNI ^b(0%)	^cNI ^d(0%)	^cNI ^d(0%)	0%	^cNI ^d(5.6%)	^cNI ^d(4.9%)	^cNI ^d(2.6%)	3.3%	^cNI ^d(0%)	^cNI ^d(5.3%)	In solution	16 ± 8%	> 50 µM	17 ± 2%	> 50 µM	8 ± 2%	> 50 µM	< 0%	> 50 µM	inhibition % α-D-Galactosidase Coffee Beans ([2]; at 1000 μM): ^aNI ^b(2.7%); IC50 (α-D-glucosidase (rice); listed as of the 1000 μM series): 622 µM; inhibition % α-D-Mannosidase Jack Bean ([4]; at 1000 μM): ^aNI ^b(0.4%); inhibition % α-L-Rhamnosidase P. decumbens ([5]; at 1000 μM): ^aNI ^b(9.5%); inhibition % β-D-Glucosidase Almond (β-D-glucosidase (almond); at 1000 μM): ^aNI ^b(40.1%); inhibition at 1000 µM ([6]; at 1000 μM): 25.7%; inhibition % β-D-Glucuronidase Bovine Liver ([7]; at 1000 μM): ^aNI ^b(0.9%); inhibition % β-D-Mannosidase Snail (β-D-mannosidase (snail); at 1000 μM): ^aNI ^b(2.3%)
CC1(C)O[C@H]2O[C@H]3[C@@H]([C@H]2O1)N(Cc1cccc(O)c1)C[C@H]3O [meta 6]	^cNI ^d(0%)		^cNI ^d(0%)	^cNI ^d(4.7%)	0%	^cNI ^d(9.5%)	^cNI ^d(6.5%)	^cNI ^d(6.3%)	15.8%	^cNI ^d(1.6%)	^cNI ^d(0.6%)	In solution	23 ± 6%	> 50 µM	4 ± 9%	> 50 µM	6 ± 3%	> 50 µM	4 ± 3%	> 50 µM	
OB(O)c1cccc(CN2C[C@@H](O)[C@H]3OC(O)[C@H](O)[C@H]32)c1 (stereo partly drawn) [meta 3, N-(3-Methylphenylboronic acid)-3,6-dideoxy-3,6-imino-D-gulofuranose]	^cNI ^d(20.9%)	^aNI ^b(0%)	^cNI ^d(0%)	^cNI ^d(12.3%)	0%	^cNI ^d(0%)	^cNI ^d(1.2%)	^cNI ^d(24.8%)	8.2%	^cNI ^d(1.2%)	^cNI ^d(0%)	In solution	18 ± 1%	> 50 µM	3%	> 50 µM	2 ± 2%	> 50 µM	< 0%	> 50 µM	inhibition % α-D-Galactosidase Coffee Beans ([2]; at 1000 μM): ^aNI ^b(0.7%); inhibition % α-D-Glucosidase Rat Intestinal Maltase ([3]; at 1000 μM): ^aNI ^b(2.0%); inhibition at 1000 µM (α-D-glucosidase (rice); at 1000 μM): 5.9%; inhibition % α-D-Mannosidase Jack Bean ([4]; at 1000 μM): ^aNI ^b(0%); inhibition % α-L-Rhamnosidase P. decumbens ([5]; at 1000 μM): ^aNI ^b(3.2%); inhibition % β-D-Glucosidase Almond (β-D-glucosidase (almond); at 1000 μM): ^aNI ^b(45.8%); inhibition % β-D-Glucuronidase Bovine Liver ([7]; at 1000 μM): ^aNI ^b(7.2%); inhibition % β-D-Mannosidase Snail (β-D-mannosidase (snail); at 1000 μM): ^aNI ^b(0%)
N[C@@H](Cc1ccc(B(O)O)cc1)C(=O)O [BPA, 4-borono-L-phenylalanine, reference compound]	^cNI ^d(0%)		^cNI ^d(4.3%)	^cNI ^d(0%)		^cNI ^d(1.1%)	^cNI ^d(0%)	^cNI ^d(0%)	0%	^cNI ^d(7.4%)	^cNI ^d(2.1%)	Some in solution with undissolved sediment	4%		4%		7%		14%		
